Legend:
CHLA-255-luc = test: NB luminescence growth/viability in monocyte co-culture; assay type: cell-based, human; details: 10 μg/mL etanercept
Description: (§1) (FIG. 8A) Luciferase expressing CHLA-255-luc and SK-NAS-luc were cultured in 1-16,000 pg/mL rhTNF for 48 hours and viability of the cells was measured by luminescence. Data was normalized to untreated control and graphed as % Viability versus Log10 of TNF concentration.
(15A) TNFα level within co-culture supernatant was determined by TNFα ELISA. Mean TNFα concentration±SD of representative data from two monocyte donors run in triplicate. (FIG. 15B) Supernatant IL-6 levels were determined by ELISA. Mean IL-6 concentration±SD of representative data from two monocyte donors run in triplicate (FIG. 15C) Intracellular IκBα expression level within CD14+GD2− monocyte population was determined by flow cytometry and IκBα MFI was normalized to monocyte only control. Mean normalized IκBα MFI±SD and representative from experiments with two monocyte donors run in triplicate. (FIG. 15D) Intracellular IκBα expression level within CD14-GD2+NB population was determined by flow cytometry and IκBα MFI was normalized to NB only control. Mean normalized IκBαMFI±SD, representative from experiments with two monocyte donors run in triplicate. (FIG. 15E) Multiplex Luminex cytokine assay was performed on co-culture supernatants. […] NB luminescence was used to evaluate relative viability of cell line. Results are normalized mean luminescence±SD, n=6 replicates per condition. […] Cells undergoing multiple (2+) divisions were quantified as a percentage of total cells and normalized to NB (0) and Ctrl (1). […]
Monocytes were directly cultured with wild-type or TNF, TNFR1, TNFR2 KO NB cell lines in ULA plates for 24 hours. Activation of NF-kB in monocytes and NB was measured by flow cytometry and cytokine production measured by ELISA from co-culture supernatant. To evaluate the contact-dependence of monocyte activation by NB, monocytes were cultured in ULA plates with seven-day NB conditioned medium mixed 1:1 with complete monocyte medium for 24 hours and analyzed for IL-6 production. […] Luminescence was measured using a TECAN Spark plate reader (TECAN). […] CellTrace Violet expression was analyzed by flow cytometry.

SK-N-AS-luc = test: NB luminescence viability in monocyte co-culture; assay type: cell-based, human; details: SK-N-AS-luc + monocytes, 10 μg/mL etanercept, 72 hours (FIG. 8B)
Description: as §1
Monocytes were directly cultured with wild-type or TNF, TNFR1, TNFR2 KO NB cell lines in ULA plates for 24 hours. Activation of NF-kB in monocytes and NB was measured by flow cytometry and cytokine production measured by ELISA from co-culture supernatant. To evaluate the contact-dependence of monocyte activation by NB, monocytes were cultured in ULA plates with seven-day NB conditioned medium mixed 1:1 with complete monocyte medium for 24 hours and analyzed for IL-6 production. […] Luminescence was measured using a TECAN Spark plate reader (TECAN). To evaluate changes in proliferation, NB was pulsed for 10 minutes in CellTrace Violet (2 μM, Invitrogen) and seeded at 100,000 cells per well in a 12-well tissue culture-treated plate. Monocytes were added directly to the NB monolayer at a density of 100,000 per well and incubated for four days. CellTrace Violet expression was analyzed by flow cytometry.

etanercept
monocyte-induced proliferation above baseline (luminescence) (CHLA-255-luc; CHLA-255-luc + monocytes, 72 hours (FIG. 8B)): reduces this
NB luminescence (growth/viability) increase induced by monocytes (CHLA-255-luc; CHLA-255-luc + monocytes, 72 hours, vs IgG control (FIG. 15F)): completely abrogated the effect of monocytes on NB cells
effect of monocyte-induced TNF signaling on NB cells (CHLA-255-luc; CHLA-255-luc and SK-N-AS-luc + monocytes, 72 hours (FIG. 8B)): reversed the effect of monocyte-induced TNF signaling on NB cells
cell death caused by monocyte-produced TNF (luminescence) (SK-N-AS-luc): rescued
